From article PMC8041284, “Tunable Methacrylamides for Covalent Ligand Directed Release Chemistry” (Journal of the American Chemical Society, 2021)
Read-outs that look alike come from different tables or passages of the source.

Molecular target: BTK (Homo sapiens, UniProt Q06187)
Experiment: biochemical
[1] = read-out: BTK inhibition (%), 0.75 uM BTK, […] probe 3l, 15 min preincubation

Sequence of BTK (Q06187 402-655 limits assumed): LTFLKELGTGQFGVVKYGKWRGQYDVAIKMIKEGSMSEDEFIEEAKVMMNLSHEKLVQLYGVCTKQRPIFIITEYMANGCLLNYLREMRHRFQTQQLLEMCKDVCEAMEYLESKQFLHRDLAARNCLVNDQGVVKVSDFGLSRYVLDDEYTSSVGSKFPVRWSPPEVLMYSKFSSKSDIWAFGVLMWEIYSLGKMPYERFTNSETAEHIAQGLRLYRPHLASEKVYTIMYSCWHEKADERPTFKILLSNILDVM

Compound `C=C(C)[C@@H]1CC[C@]2(C(=O)O[C@@H]3O[C@H](CO[C@@H]4O[C@H](CO)[C@@H](O[C@@H]5O[C@@H](C)[C@H](O)[C@@H](O)[C@H]5O)[C@H](O)[C@H]4O)[C@@H](O)[C@H](O)[C@H]3O)CC[C@]3(C)[C@H](CC[C@@H]4[C@@]5(C)CC[C@H](O[C@@H]6OC[C@H](O)[C@H](O)[C@H]6O[C@@H]6O[C@@H](C)[C@H](O)[C@@H](O)[C@H]6O)[C@@](C)(CO)[C@@H]5CC[C@]43C)[C@@H]12` [PCM-0216377] has an inhibition at 10 µM [1] of -42.6%.

With `CCC(=C(c1ccc(O)cc1)c1ccc(OCCN(C)C)cc1)c1ccccc1` [PCM-0215638] the inhibition at 10 µM [1] was -11.6%.

Work on `O=C1C[C@@H](c2ccc(O)cc2)Oc2cc(O)ccc21` [PCM-0214979] yielded an inhibition at 10 µM [1] of -9.3%.

With `Cc1cccc(C)c1NC(=O)C1CCCCN1C` (centres unmarked) [PCM-0086182] the inhibition at 10 µM [1] was 3.4%.

For `O=C(/C=C/c1ccc(O)cc1)OC[C@H]1O[C@@H](Oc2c(-c3ccc(O)cc3)oc3cc(O)cc(O)c3c2=O)[C@H](O)[C@@H](O)[C@@H]1O` [PCM-0216495], the inhibition at 10 µM [1] was 15.3%.

With `CC(C)=CCC[C@](C)(O)[C@H]1CC[C@]2(C)[C@@H]1[C@H](O)C[C@@H]1[C@@]3(C)CC[C@H](O)C(C)(C)[C@@H]3[C@@H](O[C@@H]3O[C@H](CO)[C@@H](O)[C@H](O)[C@H]3O[C@@H]3O[C@@H](C)[C@H](O)[C@@H](O)[C@H]3O)C[C@]12C` [PCM-0216405] the inhibition at 10 µM [1] was -5.4%.

Work on `CO/N=C(\C(=O)N[C@@H]1C(=O)N2C(C(=O)O)=C(Cn3ccc(=N)n3CCO)CS[C@H]12)c1csc(N)n1` [PCM-0215184] yielded an inhibition at 10 µM [1] of 9.4%.

Work on `Cc1cccc(Cc2cnc[nH]2)c1C` [PCM-0095257] yielded an inhibition at 10 µM [1] of -20.2%.

Compound `Cn1nnc2c(C(N)=O)ncn2c1=O` [PCM-0086047] has an inhibition at 10 µM [1] of -4.1%.

Work on `CN1C(=O)CCS(=O)(=O)C1c1ccc(Cl)cc1` (centres unmarked) [PCM-0065261] yielded an inhibition at 10 µM [1] of -14%.

With `CC(=O)Nc1ccc(OC[C@](C)(O)C(=O)Nc2ccc([N+](=O)[O-])c(C(F)(F)F)c2)cc1` [PCM-0094957] the inhibition at 10 µM (read-out: BTK inhibition (%)) was -1.4%.

`N[C@@H](CO)C(=O)O` [PCM-0216618] gave an inhibition at 10 µM [1] of 4.3%.

`CC(C)c1ccccc1Cc1cc(C(=O)Nc2ccc(S(=O)(=O)c3ccccc3C(C)(C)C)cc2)c(O)c(O)c1O` [PCM-0094924] showed an inhibition at 10 µM [1] of 54.5%.

`CNC(=O)c1ccc(C)c(-n2c(C)cc(OCc3ccc(F)cc3F)c(Br)c2=O)c1` [PCM-0095443] was tested, and the inhibition at 10 µM [1] was -14.5%.

Compound `CC(=O)Oc1ccc(C(=C2CCCCC2)c2ccc(OC(C)=O)cc2)cc1` [PCM-0216241] has an inhibition at 10 µM [1] of -3.9%.

Compound `NCCS(=O)(=O)O` [PCM-0064776] has an inhibition at 10 µM [1] of -6%.

With `CC(=O)N[C@@H]1[C@@H](O[C@@H]2O[C@H](C(=O)O)[C@@H](O)[C@H](O)[C@H]2O)[C@@H](O)[C@@H](OS(=O)(=O)O)O[C@H]1O` [PCM-0215884] the inhibition at 10 µM [1] was -22.1%.

In the case of `Nc1cc(N)c(N)cc1N` [PCM-0216082], the inhibition at 10 µM [1] is reported as 31.7%.

In the case of `CCOC(=O)c1ccc(NC2CCCCC2)c(N)c1` [PCM-0095725], the inhibition at 10 µM [1] is reported as 31.7%.

Compound `CNCC(=O)c1ccc(O)c(O)c1` [PCM-0090552] has an inhibition at 10 µM [1] of 10.9%.

Work on `NCC[C@H](O)C(=O)N[C@@H]1C[C@H](N)[C@@H](O[C@H]2O[C@H](CN)[C@@H](O)[C@H](O)[C@H]2O)[C@H](O)[C@H]1O[C@H]1O[C@H](CO)[C@@H](O)[C@H](N)[C@H]1O` [PCM-0215174] yielded an inhibition at 10 µM [1] of 9.4%.

`N=c1cc(N2CCCCC2)nc(N)n1OS(=O)(=O)O` [PCM-0216071] was tested, and the inhibition at 10 µM [1] was -9.3%.

In the case of `CCCCC(=O)O[C@H]1CC[C@H]2[C@@H]3CCc4cc(O)ccc4[C@H]3CC[C@]12C` [PCM-0214721], the inhibition at 10 µM [1] is reported as 17.9%.

In the case of `CC(C)n1nccc1-c1ncccc1COc1cccc(O)c1C=O` [PCM-0215847], the inhibition at 10 µM [1] is reported as -13.1%.

In the case of `Cc1cnc(Nc2ccc(N3CCN(C)CC3)cc2)nc1Nc1cccc(S(=O)(=O)NC(C)(C)C)c1` [PCM-0095386], the inhibition at 10 µM [1] is reported as 82.8%.

`O=C(NS(=O)(=O)c1ccc(Br)s1)c1ccc(Cl)cc1Cl` [PCM-0095739] showed an inhibition at 10 µM [1] of -10%.

In the case of `Cc1c(C(=O)C=Cc2ccccc2)[n+](=O)c2ccccc2n1[O-]` [PCM-0216007], the inhibition at 10 µM [1] is reported as -6.9%.

Work on `C[C@@]1(CO)C[C@@H](O)C[C@@]2(C)[C@@H]3CC[C@](C)([C@@H](O)CO)C=C3CC[C@H]12` [PCM-0216530] yielded an inhibition at 10 µM [1] of 20.8%.

`COc1ccc(C[C@@H]2c3cc(Oc4cc(C[C@@H]5c6cc(O)c(OC)cc6CCN5C)ccc4O)c(OC)cc3CCN2C)cc1` [PCM-0216496] showed an inhibition at 10 µM [1] of 16.2%.

In the case of `Nc1ccn([C@@H]2CS[C@H](CO)O2)c(=O)n1` [PCM-0085971], the inhibition at 10 µM [1] is reported as 14%.

`Cc1[nH]c(/C=C2\C(=O)Nc3ccccc32)c(C)c1CCC(=O)O` [PCM-0095149] was tested, and the inhibition at 10 µM [1] was 52.4%.

For `CCCCOc1c(C(=O)c2c(F)cc(C)cc2F)cnc2n[nH]cc12` [PCM-0095294], the inhibition at 10 µM [1] was -2.1%.

Compound `Oc1ccc(Nc2nc(-c3ccc(Cl)cc3)cs2)cc1` [PCM-0095692] has an inhibition at 10 µM [1] of 84.8%.

For `O=C[C@H](O)[C@@H](O)[C@H](O)CO` [PCM-0214661], the inhibition at 10 µM [1] was -12.5%.

Compound `CCOc1ccccc1-n1c(C(C)N2CCN(C(=O)COc3ccc(Cl)cc3)CC2)nc2ccccc2c1=O` (centres unmarked) [PCM-0095811] has an inhibition at 10 µM [1] of 15.4%.
